According to ChEMBL document CHEMBL1201862, “PubChem BioAssay data set” (2004):
The source made the active and inactive calls.

Tests used:
[1] = biological target: T1, Sentrin-specific protease 6 (Homo sapiens, UniProt Q9GZR1); type: functional;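 also: Luminescence-based dose-response confirmatory assay of SENP6 inhibition, following up an ultra-high-throughput screen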
T1 sequence (Q9GZR1 whole entry): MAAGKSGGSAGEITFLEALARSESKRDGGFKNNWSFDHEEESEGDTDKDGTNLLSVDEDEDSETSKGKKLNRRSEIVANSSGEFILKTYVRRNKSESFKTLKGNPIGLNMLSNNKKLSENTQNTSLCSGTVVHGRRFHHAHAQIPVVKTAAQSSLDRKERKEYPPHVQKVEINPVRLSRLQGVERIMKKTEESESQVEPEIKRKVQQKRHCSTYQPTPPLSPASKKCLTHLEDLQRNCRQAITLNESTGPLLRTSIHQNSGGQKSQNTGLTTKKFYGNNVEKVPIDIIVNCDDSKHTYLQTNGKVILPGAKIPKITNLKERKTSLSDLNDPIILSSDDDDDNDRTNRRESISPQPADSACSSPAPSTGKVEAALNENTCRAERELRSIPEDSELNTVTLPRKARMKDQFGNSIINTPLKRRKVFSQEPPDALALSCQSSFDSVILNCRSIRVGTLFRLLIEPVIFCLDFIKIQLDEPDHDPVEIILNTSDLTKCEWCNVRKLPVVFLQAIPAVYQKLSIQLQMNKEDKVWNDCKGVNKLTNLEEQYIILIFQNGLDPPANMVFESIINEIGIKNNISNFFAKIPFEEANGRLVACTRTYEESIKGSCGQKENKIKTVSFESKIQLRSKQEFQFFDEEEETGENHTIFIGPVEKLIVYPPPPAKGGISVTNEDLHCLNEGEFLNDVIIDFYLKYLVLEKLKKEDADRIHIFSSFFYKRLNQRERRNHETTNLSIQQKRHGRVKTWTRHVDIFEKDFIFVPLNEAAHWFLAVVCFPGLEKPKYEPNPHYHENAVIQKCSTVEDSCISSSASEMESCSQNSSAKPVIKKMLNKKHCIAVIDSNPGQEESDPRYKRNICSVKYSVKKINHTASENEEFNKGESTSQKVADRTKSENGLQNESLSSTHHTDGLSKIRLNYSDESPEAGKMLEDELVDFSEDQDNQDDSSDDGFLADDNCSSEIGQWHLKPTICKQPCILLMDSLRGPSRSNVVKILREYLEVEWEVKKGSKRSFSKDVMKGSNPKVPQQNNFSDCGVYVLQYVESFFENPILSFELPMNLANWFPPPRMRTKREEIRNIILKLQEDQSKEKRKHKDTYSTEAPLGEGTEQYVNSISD

[2] = biological target: T2, Sentrin-specific protease 7 (Homo sapiens, UniProt Q9BQF6); type: functional;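 also: Luminescence-based dose-response confirmation of ultra-high-throughput screening hits, measuring inhibition of SENP7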
T2 sequence (Q9BQF6 whole entry): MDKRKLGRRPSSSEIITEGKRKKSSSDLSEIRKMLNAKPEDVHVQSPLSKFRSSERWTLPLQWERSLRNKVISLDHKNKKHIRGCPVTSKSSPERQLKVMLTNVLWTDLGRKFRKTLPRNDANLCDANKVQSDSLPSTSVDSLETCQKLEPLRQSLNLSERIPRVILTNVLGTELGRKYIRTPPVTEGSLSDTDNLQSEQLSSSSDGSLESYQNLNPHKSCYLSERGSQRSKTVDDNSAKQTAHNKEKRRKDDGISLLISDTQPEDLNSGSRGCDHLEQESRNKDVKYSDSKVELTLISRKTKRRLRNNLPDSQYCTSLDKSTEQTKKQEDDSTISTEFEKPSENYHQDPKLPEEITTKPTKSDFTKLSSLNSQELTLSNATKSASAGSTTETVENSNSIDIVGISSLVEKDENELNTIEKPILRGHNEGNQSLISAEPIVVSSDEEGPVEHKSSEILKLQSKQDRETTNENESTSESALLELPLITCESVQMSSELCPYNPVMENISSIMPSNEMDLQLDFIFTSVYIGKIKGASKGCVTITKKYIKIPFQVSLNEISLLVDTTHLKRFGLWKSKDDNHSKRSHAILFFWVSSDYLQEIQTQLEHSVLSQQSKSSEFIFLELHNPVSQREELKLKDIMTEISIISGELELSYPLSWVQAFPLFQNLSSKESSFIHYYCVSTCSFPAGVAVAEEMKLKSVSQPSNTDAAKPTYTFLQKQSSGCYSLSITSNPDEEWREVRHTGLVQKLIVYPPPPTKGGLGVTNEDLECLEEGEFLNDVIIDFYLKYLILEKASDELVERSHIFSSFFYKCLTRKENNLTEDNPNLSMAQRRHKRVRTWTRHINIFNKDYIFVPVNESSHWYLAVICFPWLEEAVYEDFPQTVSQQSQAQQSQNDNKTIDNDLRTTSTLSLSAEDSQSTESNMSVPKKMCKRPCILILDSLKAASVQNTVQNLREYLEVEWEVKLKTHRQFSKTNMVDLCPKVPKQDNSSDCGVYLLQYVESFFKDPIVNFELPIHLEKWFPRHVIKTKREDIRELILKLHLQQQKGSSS

[3] = biological target: T3, Sentrin-specific protease 8 (Homo sapiens, UniProt Q96LD8); type: functional;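 also: luminescence read-out of SENP8 inhibition, dose-response confirmation following an ultra-high-throughput screen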
T3 sequence (Q96LD8 whole entry): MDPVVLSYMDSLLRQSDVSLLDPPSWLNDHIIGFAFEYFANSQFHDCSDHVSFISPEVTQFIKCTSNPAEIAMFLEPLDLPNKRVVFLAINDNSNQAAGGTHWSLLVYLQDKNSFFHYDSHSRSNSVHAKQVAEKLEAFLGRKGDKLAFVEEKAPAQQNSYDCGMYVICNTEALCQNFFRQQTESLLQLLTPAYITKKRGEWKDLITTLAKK

[4] = biological target: T4, Caspase-3 (Homo sapiens, UniProt P42574); type: functional;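 also: Dose-response selectivity test against caspase-3 for candidate inhibitors of sentrin-specific proteases (SENPs)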
T4 sequence (P42574 whole entry): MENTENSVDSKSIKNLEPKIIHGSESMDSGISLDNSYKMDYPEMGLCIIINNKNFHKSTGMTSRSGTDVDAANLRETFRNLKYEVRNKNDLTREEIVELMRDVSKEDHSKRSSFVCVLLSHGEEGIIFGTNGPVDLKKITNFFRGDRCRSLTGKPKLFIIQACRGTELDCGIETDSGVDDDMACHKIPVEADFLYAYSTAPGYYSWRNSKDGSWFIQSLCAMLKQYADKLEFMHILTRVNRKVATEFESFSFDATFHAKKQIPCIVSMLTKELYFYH

[5] = biological target: Beta Lactamase (Pseudomonas aeruginosa, UniProt Q932Y6); assay: BLA reporter interference, concentration series – BLA reporter cells, FRET fluorescence, artefact control for TLR9-MyD88 binding inhibitor project, dose response (AID 588341); type: cell-based;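 also: cell based assay in CHO-K1 cells stably expressing beta-lactamase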
[6] = test system: CHO; assay: CHO cell viability loss, potency – luminescence, cytotoxicity control for TLR9-MyD88 binding inhibitor project, dose response (AID 588339); type: functional, cell-based, hamster; details: Cricetulus griseus;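 also: CHO cells stably coexpressing TLR9 and MyD88 fusions from primary screen; compound exposure lasted 48 hours before viability readout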
[7] = Luminescence Cell-Based Dose Confirmation HTS to Identify Inhibitors of Platelet Dense Granule Release. [Related pubchem assays: 1663 (Primary HTS), 1678 (Summary of Project)]; type: functional
[8] = biological target: Luciferin 4-monooxygenase (Photinus pyralis, UniProt P08659); assay: inhibition of purified Photinus pyralis luciferase – biochemical, luminescence, dose response (AID 1891)
[9] = biological target: Endoplasmic reticulum aminopeptidase 1 (Homo sapiens, UniProt Q9NZ08); assay: inhibition of human ERAP1 enzyme activity – biochemical, cherry-pick, set 2, plate reader, dose response (AID 743314)
[10] = biological target: T5, Apoptotic protease-activating factor 1 (Homo sapiens, UniProt O14727); type: functional
T5 sequence (O14727 whole entry): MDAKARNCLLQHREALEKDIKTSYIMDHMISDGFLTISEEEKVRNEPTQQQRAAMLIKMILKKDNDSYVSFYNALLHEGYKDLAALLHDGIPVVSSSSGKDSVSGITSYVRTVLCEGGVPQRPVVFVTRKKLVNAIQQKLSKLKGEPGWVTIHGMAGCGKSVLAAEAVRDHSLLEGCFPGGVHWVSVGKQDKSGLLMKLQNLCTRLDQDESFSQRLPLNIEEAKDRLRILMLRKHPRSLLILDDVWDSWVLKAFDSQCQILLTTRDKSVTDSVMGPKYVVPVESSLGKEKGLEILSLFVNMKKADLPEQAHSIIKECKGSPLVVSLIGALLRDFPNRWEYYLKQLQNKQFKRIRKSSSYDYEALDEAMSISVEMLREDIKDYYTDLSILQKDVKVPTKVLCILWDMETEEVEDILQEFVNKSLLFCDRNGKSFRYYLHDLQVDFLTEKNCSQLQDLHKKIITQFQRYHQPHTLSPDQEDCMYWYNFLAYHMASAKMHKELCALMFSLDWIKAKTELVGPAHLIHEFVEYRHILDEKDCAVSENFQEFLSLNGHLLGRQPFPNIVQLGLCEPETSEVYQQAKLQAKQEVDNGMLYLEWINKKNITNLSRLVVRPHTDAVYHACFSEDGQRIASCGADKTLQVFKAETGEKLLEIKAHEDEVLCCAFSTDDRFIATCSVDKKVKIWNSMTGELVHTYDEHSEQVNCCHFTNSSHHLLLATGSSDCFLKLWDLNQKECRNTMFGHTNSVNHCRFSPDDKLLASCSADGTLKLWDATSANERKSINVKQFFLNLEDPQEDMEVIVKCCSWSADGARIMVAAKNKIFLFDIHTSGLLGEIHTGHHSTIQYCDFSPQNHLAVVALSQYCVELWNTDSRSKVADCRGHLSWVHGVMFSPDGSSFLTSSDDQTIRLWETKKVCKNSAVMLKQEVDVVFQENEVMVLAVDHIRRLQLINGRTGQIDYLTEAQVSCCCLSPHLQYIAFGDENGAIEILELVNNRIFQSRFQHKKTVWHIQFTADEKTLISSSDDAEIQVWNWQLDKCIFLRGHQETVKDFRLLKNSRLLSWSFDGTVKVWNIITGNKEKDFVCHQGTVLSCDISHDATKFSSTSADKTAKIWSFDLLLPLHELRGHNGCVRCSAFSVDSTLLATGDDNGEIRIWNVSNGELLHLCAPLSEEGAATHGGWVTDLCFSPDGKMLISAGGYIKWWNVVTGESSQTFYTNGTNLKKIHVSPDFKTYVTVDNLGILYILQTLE

Beta Lactamase, sequence (Q932Y6 whole entry, the tested form may be a part): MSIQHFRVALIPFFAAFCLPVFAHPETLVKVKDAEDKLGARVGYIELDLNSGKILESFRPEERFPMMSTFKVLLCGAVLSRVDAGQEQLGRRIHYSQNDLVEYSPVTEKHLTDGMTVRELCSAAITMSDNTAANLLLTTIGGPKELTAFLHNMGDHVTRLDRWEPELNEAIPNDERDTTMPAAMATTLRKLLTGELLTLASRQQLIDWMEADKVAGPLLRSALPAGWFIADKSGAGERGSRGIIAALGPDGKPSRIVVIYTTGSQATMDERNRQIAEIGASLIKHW
Endoplasmic reticulum aminopeptidase 1, sequence (Q9NZ08 whole entry): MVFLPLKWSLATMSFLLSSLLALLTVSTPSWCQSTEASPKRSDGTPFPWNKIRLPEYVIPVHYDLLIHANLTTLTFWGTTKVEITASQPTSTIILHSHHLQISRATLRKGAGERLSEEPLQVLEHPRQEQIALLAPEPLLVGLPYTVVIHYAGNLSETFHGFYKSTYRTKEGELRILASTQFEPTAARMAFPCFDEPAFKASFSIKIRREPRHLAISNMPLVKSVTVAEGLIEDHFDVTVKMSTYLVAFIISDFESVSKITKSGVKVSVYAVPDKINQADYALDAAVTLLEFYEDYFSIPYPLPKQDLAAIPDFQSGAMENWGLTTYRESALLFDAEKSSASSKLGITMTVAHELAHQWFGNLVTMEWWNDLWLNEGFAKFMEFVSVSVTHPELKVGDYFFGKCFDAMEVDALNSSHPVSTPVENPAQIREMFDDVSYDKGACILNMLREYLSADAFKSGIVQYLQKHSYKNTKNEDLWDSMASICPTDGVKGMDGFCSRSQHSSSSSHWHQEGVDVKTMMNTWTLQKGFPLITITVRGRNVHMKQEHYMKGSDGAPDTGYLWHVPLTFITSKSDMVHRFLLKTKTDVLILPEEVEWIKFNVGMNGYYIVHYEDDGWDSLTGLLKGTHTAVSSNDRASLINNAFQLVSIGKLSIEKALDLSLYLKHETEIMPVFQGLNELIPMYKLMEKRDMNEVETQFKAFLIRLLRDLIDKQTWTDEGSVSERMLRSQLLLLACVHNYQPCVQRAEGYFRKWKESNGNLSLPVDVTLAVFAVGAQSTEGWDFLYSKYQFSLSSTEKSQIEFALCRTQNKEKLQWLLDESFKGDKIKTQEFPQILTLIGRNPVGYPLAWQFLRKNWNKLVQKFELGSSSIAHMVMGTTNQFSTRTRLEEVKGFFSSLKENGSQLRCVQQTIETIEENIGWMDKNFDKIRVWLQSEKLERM
Luciferin 4-monooxygenase, sequence (P08659 whole entry): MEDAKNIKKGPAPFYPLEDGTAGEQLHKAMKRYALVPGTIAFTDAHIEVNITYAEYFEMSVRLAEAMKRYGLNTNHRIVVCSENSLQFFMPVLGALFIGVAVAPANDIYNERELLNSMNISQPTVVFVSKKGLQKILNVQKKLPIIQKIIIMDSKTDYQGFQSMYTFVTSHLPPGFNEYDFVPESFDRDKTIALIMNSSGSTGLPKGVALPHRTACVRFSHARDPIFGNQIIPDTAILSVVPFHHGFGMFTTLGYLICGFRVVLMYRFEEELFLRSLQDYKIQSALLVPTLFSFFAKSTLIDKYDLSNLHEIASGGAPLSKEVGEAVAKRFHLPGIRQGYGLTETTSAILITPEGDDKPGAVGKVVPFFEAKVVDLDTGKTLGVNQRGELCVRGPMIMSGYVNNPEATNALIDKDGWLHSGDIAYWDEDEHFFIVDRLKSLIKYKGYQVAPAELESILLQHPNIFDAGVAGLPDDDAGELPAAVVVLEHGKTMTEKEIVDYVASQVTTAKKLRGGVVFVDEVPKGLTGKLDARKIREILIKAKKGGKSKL

Structure (SMILES) | IC50 [1] | IC50 [2] | IC50 [3] | IC50 [4] | IC50 [5] | IC50 [6] | further results
O=C1CC(/C=C/c2ccccc2)=Nc2ccccc2N1 | 33.2 µM (active) | 6.55 µM (active) | 48.1 µM (active) | 28.2 µM (active) |  |  | 
CC(=O)Oc1cccc(N2C(=O)c3cccc4c([N+](=O)[O-])ccc(c34)C2=O)c1 |  |  |  |  | 4.5 µM (active) | 5.26 µM (active) | 
COc1ccc(-c2cc3ccc(O)cc3oc2=O)cc1OC |  |  |  |  | 5.23 µM (active) | > 49.8 µM (inactive) | EC50 [7]: 0.335 µM (active); EC50 [8]: 1.23 µM (active); AC50 [9]: 3.21 µM (active)
COc1ccc(-c2cn(CCC(=O)O)c(C)n2)cc1 | 4.89 µM (active) | 4.75 µM (active) | 4.56 µM (active) | 40.7 µM (active) |  |  | 
CCN(CC(=O)Nc1c(F)cccc1F)C(=O)Cc1ccsc1 |  |  |  |  |  |  | IC50 [10]: > 100 µM (inactive)
